Legend:
[1] = Solution stability of copper(II) complexes, UV/Vis spectrophotometric titration; format: physicochemical; details: for logβ [Cu(HL)]2+ / logβ [CuL]+: copper(II) complex of the proligand; for logβ [Cu(HL)]2+ / logβ [CuL]+ / logβ [CuLH−1]: I = 0.1 M (KCl), t = 25 °C; for logKderived [CuLH−1]+: logβ [CuL]+ − pKa (H2L+); for logβ [CuLH−1]: mixed hydroxido [CuL(OH)] species; for pCu (−log[Cu(II)]): pH = 7.4, cCu(II) = 10 μM, cL = 10 μM
Experimental: An Agilent Carry 8454 diode array spectrophotometer was used to record the UV/Vis spectra in the interval 200–800 nm. The path length was 1 cm. Proton dissociation constants (pKa) of the TSC ligands, the overall stability constants of the copper(II) monoligand complexes (logβ) and the individual spectra of the species in the various protonation states and stoichiometry were calculated by the computer program PSEQUAD [44]. Spectrophotometric titrations were performed on samples containing the proligands at 50 μM concentration by a KOH solution in the presence of 0.1 M KCl at 25.0 ± 0.1 °C in the pH range from 2 to 11.5, and the metal-to-ligand ratio was 1:0, 1:1 and 1:2. An Orion 710A pH-meter equipped with a Metrohm combined electrode (type 6.0234.100) and a Metrohm 665 Dosimat burette were used for the titrations. […] The average water ionisation constant (pKw) is 13.76 ± 0.05 in water. Argon was also passed over the solutions during the titrations. Measurements were also carried out in the range of ca. 1.0–2.0 by preparing individual samples in which KCl was partially or completely replaced by HCl and pH values (between 1 and 2) were calculated from the strong acid content.

[2] = Redox reaction of copper(II) complexes with GSH, anaerobic UV/Vis kinetics; format: physicochemical; details: copper(II) complex (1–4) of the proligand, pH = 7.4, ccomplex = 25 μM, cGSH = 1.25 mM
Experimental: The redox reactions of the copper(II) complexes with GSH and AA were studied at 25.0 ± 0.1 °C on Hewlett Packard 8452A diode array spectrophotometer using a special, tightly closed tandem cuvette (Hellma Tandem Cell, 238-QS). The reactants were separated until the reaction was triggered. Both isolated pockets of the cuvette were completely deoxygenated by bubbling a stream of argon for 10–15 min before mixing the reactants. Spectra were recorded before and then immediately after the mixing, and changes were followed until no further absorbance change was observed. One of the isolated pockets contained the reducing agent and its concentration was 1250 μM and the other contained 25 μM copper(II) complex. The pH of all the solutions was adjusted to 7.40 by 50 mM HEPES buffer and an ionic strength of 0.1 M (KCl) was applied. The stock solutions of the reducing agents and the complexes were freshly prepared every day. During the calculations, the absorbance (A) − time (t) curves were fitted and analysed at the λmax of the complex. (A0 − Afinal) × e^(−a×t) + Afinal equation was used where A0, Afinal and a parameters were refined and accepted at the minimal value of the weighted sum of squared residuals (difference between the measured and calculated absorbance values) at the given wavelength. Then observed rate constants (kobs) of the redox reaction were obtained from the data points of the simulated absorbance–time curves as the slope of the ln(A/A0) versus t plots.

[3] = MTT cytotoxicity (24 h) / antiproliferation (72 h) assay; format: cell-based; details: human, MRC-5 embryonal lung fibroblast cells (non-cancerous); for IC50 at 24 h: 24 h exposure; for IC50 at 72 h: 72 h exposure
Experimental: (§1) MRC-5 human embryonal lung fibroblast cell line (ATCC CCL-171) was purchased from LGC Promochem, Teddington, UK. The cell line was cultured in Eagle’s Minimal Essential Medium (EMEM, containing 4.5 g/L glucose) supplemented with a non-essential amino acid mixture, a selection of vitamins and 10% heat-inactivated foetal bovine serum. The cell line was incubated at 37 °C, in a 5% CO2, 95% air atmosphere.
(§2) In the study non-cancerous human embryonic lung fibroblast MRC-5, human colonic adenocarcinoma cell line (doxorubicin-sensitive Colo 205, multidrug resistant Colo 320) and neuroblastoma cell line SH-SY5Y were used to determine the effect of compounds on cell growth. The effects of increasing concentrations of compounds on cell growth were tested in 96-well flat-bottomed microtiter plates. The compounds were diluted in a volume of 100 μL of medium.
(§3) The adherent human embryonal lung fibroblast and SH-SY5Y neuroblastoma cells were cultured in 96-well flat-bottomed microtiter plates, using EMEM supplemented with 10% heat-inactivated foetal bovine serum. The density of the cells was adjusted to 2 × 10^4 cells in 100 μL per well, the cells were seeded for 24 h at 37 °C, 5% CO2, then the medium was removed from the plates containing the cells, and the dilutions of compounds previously made in a separate plate were added to the cells in 200 μL.
(§4) The culture plates were incubated at 37 °C for 24 h; at the end of the incubation period, 20 μL of MTT (thiazolyl blue tetrazolium bromide, Sigma) solution (from a stock solution of 5 mg/mL) were added to each well. After incubation at 37 °C for 4 h, 100 μL of sodium dodecyl sulfate (SDS) (Sigma) solution (10% in 0.01 M HCI) were added to each well and the plates were further incubated at 37 °C overnight. Cell growth was determined by measuring the optical density (OD) at 540/630 nm with Multiscan EX ELISA reader (Thermo Labsystems, Cheshire, WA, USA). […] Curves were fitted by GraphPad Prism software using the sigmoidal dose-response model (comparing variable and fixed slopes).
(§5) The method is similar to the one described in the assay for cytotoxic effect. […] The culture plates were incubated at 37 °C for 72 h and after the incubation time, the plates were stained with MTT according to the previous experimental protocol described for the cytotoxicity assay.

[4] = Distribution coefficient (D7.4), shake-flask method, n-octanol/buffered aqueous solution pH 7.40; format: physicochemical; details: n-octanol/PBS pH 7.4, 25 °C, read-out: logD7.4 (proligand)
Experimental: Distribution coefficients (D7.4) values were determined by the traditional shake-flask method in n-octanol/buffered aqueous solution at pH 7.40 (20 mM phosphate buffer saline (PBS)) at 25.0 ± 0.2 °C as described previously.

[5] = tested on: SH-SY5Y neuroblastoma cells; assay: MTT cytotoxicity (24 h) / antiproliferation (72 h) assay; format: cell-based, human; details: SH-SY5Y; for IC50: Homo sapiens, MTT; for enhancement of cytotoxicity by chelation to copper(II), factor: proligand vs its copper(II) complex
Experimental: as §1, with “SH-SY5Y (ATCC® CRL-2266™) neuroblastoma” for “MRC-5 human embryonal lung fibroblast”, “line” for “line (ATCC CCL-171)”
as §2, §3, §4, §5

SMILES	logβ [Cu(HL)]2+ [1]	logβ [CuL]+ [1]	logKderived [CuLH−1]+ [1]	logβ [CuLH−1] [1]	pCu (−log[Cu(II)]) [1]	kobs, observed rate constant of the redox reaction with GSH [2] [min⁻¹]	IC50 at 24 h [3] [µM]	IC50 at 72 h [3] [µM]	logD [4]	IC50 ([5]; 24 h exposure) [µM]	IC50 ([5]; 72 h exposure) [µM]	enhancement of cytotoxicity by chelation to copper(II), factor [5]
C[N+](C)(C)Cc1ccc(O)c(/C=N/NC(=S)Nc2ccccc2)c1 [[H2L^Ph]Cl]	11.26 ± 0.02	8.55 ± 0.02	1.52	−1.31 ± 0.05	12.80	0.025 ± 0.005	> 100	> 100	0.68 ± 0.04	> 100	31.5 ± 2.66	
CNC(=S)N/N=C/c1cc(C[N+](C)(C)C)ccc1O [[H2L^Me]Cl]	11.73 ± 0.02	7.76 ± 0.02	0.22	−1.48 ± 0.08	11.79	0.073 ± 0.002	> 100	> 100	-0.39 ± 0.01	> 100	> 100	ca. 7
C[N+](C)(C)Cc1ccc(O)c(/C=N/NC(N)=S)c1 [[H2L^H]Cl]	12.00 ± 0.01	8.14 ± 0.01	0.68	−1.66 ± 0.02	12.21	0.080 ± 0.008	> 100	> 100	-0.84 ± 0.03	> 100	> 100	ca. 2
CCNC(=S)N/N=C/c1cc(C[N+](C)(C)C)ccc1O [[H2L^Et]Cl]	11.66 ± 0.03	7.67 ± 0.03	0.36	−1.65 ± 0.09	11.82	0.058 ± 0.001	> 100	> 100	0.06 ± 0.04	88.1 ± 9.19	49.9 ± 3.97	
